Test results as given in US20080081078A1, “Prevention of Cell Proliferation by Inhibiting Myosin Light Chain Kinase” (The Board of Trustees of the University of Illinois, priority 2006, published 2008).

Assays:
MLL cells = assay: MLL prostate tumor in Copenhagen rats, ML-7 and/or etoposide; type: in vivo
Description: To determine whether ML-7 stimulated the ability of etoposide to induce apoptosis and retard tumor growth more generally in tumor cells, the effects of ML-7 and etoposide on MLL prostate cancer cells were examined. MLL cells grown in culture were harvested and washed in serum-free Hank's buffer. The cells were suspended in 500 μl serum-free Hank's media and 10^6 cells were injected subcutaneously into the right flank of 12-week old male Copenhagen rats anesthetized with ether. […] Rats were randomly divided into four groups, five in each group, and received injections of ML-7 or vehicle via the jugular vein every 4 days for 2 weeks. ML-7 was used at the dose of 35 mg/kg. In mice receiving etoposide the drug was injected IP at the maximum tolerant dose of 50 mg/m^2 daily. Rats were sacrificed with ether 14 days after the start of drug treatment, and tumors removed, weighed and processed as described below.
To test the anticancer effect of ML-7 in a rat prostate cancer model, ML-7 or vehicle was administered by intrajugular injection, and etoposide administered by intraperitoneal injection. Male Copenhagen rats were inoculated with MLL cells as described above. […] The rats were sacrificed after 14 days of drug treatment and tumor weight and body weight were recorded.
Tumor sections were deparaffinized and rehydrated according to standard procedures. […]

MLC-P = MLC-P by urea/glycerol gel immunoblotting in MLL cells; type: cell-based, rat; conditions: 5 μM ML-7, 30 μM etoposide or both
MLC20 phosphorylation = MLC20 phosphorylation by urea gel/Western blotting in smooth muscle cells (SMC); type: cell-based, pig; conditions: 24 hrs, 10 μM Dex, 10 μM ActD, 100 μM Chx, 2 μM Cam, 100 μM Eto
Description: NIH 3T3 fibroblasts were obtained from ATCC and were grown in Dulbecco's Modified Eagle Medium (DMEM) (Gibco BRL, Gaithersburg, Md.) supplemented with 10% FBS and 1% penicillin and streptomycin in a 37° C. incubator. 3T3 cells were treated with 500 nM actinomycin D in DMEM containing 0.5% FBS without antibiotics for the 0, 2, 4, 8, 16, or 24 hours. Cells were then washed with phosphate buffered saline (PBS). Floating cells were collected by centrifugation and combined with attached cells that were harvested by trypsinization. MLC20 phosphorylation was quantified be Western blotting with an anti-MLC20 antibody (FIG. 1). In short, the harvested cells were treated with ice cold 10% TCA, 10 mM DTT to precipitate the cellular proteins. The pellets were washed with acetone, dissolved in 9 M urea, 10 mM DTT, 20 mM Tris, pH 7.5 and separated using glycerol-urea polyacrylamide gel electrophoresis (PAGE). The proteins were transferred to nitrocellulose, the un-, mono-, and di-phosphorylated forms of MLC20 were identified using an affinity purified antibody to MLC20 and horseradish peroxidase-linked secondary antibody (Jackson ImmunoResearch, West Grove, Pa.). Protein bands were visualized with ECL reagent and the stoichiometry of phosphorylation (mol PO4/mol MLC20) was calculated as described (Obara et al., 1989, “Okadaic acid, a phosphatase inhibitor, produces a Ca2+ and calmodulin-independent contraction of lamb tracheal smooth muscle,” Pfluger's Archiv. 414: 134-138).
The stoichiometry of MLC20 phosphorylation (FIG. 1B, inset) was quantified using the urea gel/Western blotting method described above in untreated (Un) pig pulmonary artery smooth muscle cells (SMC) and SMC treated with 10 μM dexamethasone (Dex), 10 μM actinomycin D (ActD), 100 μM cycloheximide (Chx), 2 μM camptothecin (Cam), and 100 μM etoposide (Eto) for 24 hrs (mean+/−SE, n=3).
Next, in order to determine whether MLC-DP can trigger cell death, SMC were treated with ML-7 or KT5926, two inhibitors of MLCK (Nakanishi et al., 1990; Garcia, 1998; and Bain et al., 2003).
SMC cells were either treated with 10 μM cytochalasin D (CytD) or grown on the non-ionic substrate polyHema to prevent attachment.

[1] = tested on: precancerous mammary alveolar lesions (MAL); assay: Mouse mammary gland organ culture, DMBA-induced mammary alveolar lesions; type: cell-based, Balb/c mice
Description: Mammary glands obtained from young Balb/c mice that are exposed to 7,12-dimethylbenz(a)anthracene (DMBA) for 24 h in culture to form precancerous lesions in 24 days. The procedure has been successfully used to determine efficacy of chemopreventive agents and is described in detail elsewhere. (Mehta et al. PPARγ ligand and retinoids prevent preneoplastic mammary lesions. J. Natl Cancer Instit 2000; 92:418-23). Briefly, 70 mammary glands from 35 Balb/c mice were divided into seven groups of 10 glands each and incubated in serum-free medium containing insulin, prolactin (5 μg/ml each), aldosterone and hydrocortisone (1 μg/ml each) for 10 days. DMBA (2 μg/ml) was included in the medium for 24 h on day 3. […] The glands were fixed in formalin and stained with alum carmine and evaluated for MAL. Percent inhibition was calculated by comparing the incidence in the control glands with the treated groups.
Mammary glands obtained from young Balb/c mice were exposed to DMBA as described above and MAL formation was monitored. […] (Mehta et al. PPARγ ligand and retinoids prevent preneoplastic mammary lesions. J. Natl Cancer Instit 2000; 92:418-23) In the present study, we evaluated effects of etoposide and ML-7 at 0.1, 1.0 and 10.0 μM concentrations on the development of MAL in organ culture. […] Percentage inhibition was calculated by comparing the incidence in the control glands with the treated groups. […]

With `COc1cc([C@@H]2c3cc4c(cc3[C@@H](O[C@@H]3O[C@@H]5CO[C@@H](C)O[C@H]5[C@H](O)[C@H]3O)[C@H]3COC(=O)[C@H]23)OCO4)cc(OC)c1O` [etoposide] the “TUNEL positive nuclei in tumors” value (MLL cells; 300 cells, MLL tumors in rats (FIG. 17)) was 35.8%, the “decrease in tumor weight vs vehicle control” value (MLL cells; rats, ML-7 35 mg/kg jugular vein every 4 days, etoposide 50 mg/m^2 IP daily, 14 days) was 43.3% and the MLC-P (MLC-P) was “smaller decrease in MLC-P”. The MLC20 phosphorylation (MLC20 phosphorylation) was “dephosphorylated”, the MAL formation ([1]; 0.1 μM) was “did not affect MAL formation” and the “inhibition of incidence of MAL formation compared to control” value ([1]; 1 and 10 μM) was 40-46%.
